Experimental data taken from ChEMBL document CHEMBL3243982, “Synthesis of pyrimido[5,4-c]quinolines and related quinolines as potential antimalarials” (J Med Chem, 1978).
Calls of active or inactive are those of the source. The calls are words filed in the database; no cut-off is given here.

Legend:
Plasmodium berghei = experiment: Antimalarial activity against blood-induced Plasmodium berghei infected in mouse at 640 mg/kg; assay type: functional, organism-based; design: dose 640 mg/kg
Plasmodium gallinaceum = experiment: Antimalarial activity against Plasmodium gallinaceum at 320 mg/kg by sporozoite-induced chick test; assay type: functional, organism-based; design: dose 320 mg/kg

For `CCNCc1c(C)[nH]c2ccc(OC)cc2c1=O`, the Activity (Plasmodium berghei) was “inactive”.
In the case of `CCN1Cc2c(C)nc3ccc(OC)cc3c2N(c2cccc(Cl)c2)C1`, the Activity (Plasmodium berghei) was “inactive”.
For `CCN1Cc2c(C)nc3ccc(C)cc3c2N(c2cccc(Cl)c2)C1`, the Activity (Plasmodium berghei) was “inactive”.
For `CCNCc1c(C)[nH]c2ccc(C)cc2c1=O`, the Activity (Plasmodium berghei) was “inactive”.
In the case of `CCNCc1c(C)nc2ccc(OC)cc2c1Nc1cccc(Cl)c1`, the Activity (Plasmodium berghei) was “inactive”.
`CCN(CC)Cc1c(C)[nH]c2cc(Cl)ccc2c1=O` was tested, and the Activity (Plasmodium berghei) was “inactive”.
For `CCN1Cc2c(/C=C/c3ccccc3)nc3ccc(OC)cc3c2N(c2cccc(Cl)c2)C1`, the Activity (Plasmodium gallinaceum) was “inactive” and the Activity (Plasmodium berghei) was “inactive”.
